The values below come from ChEMBL document CHEMBL3400003, “Isoindoline-1,3-dione derivatives targeting cholinesterases: design, synthesis and biological evaluation of potential anti-Alzheimer's agents” (Bioorg Med Chem, 2015).

The target of data set [1] is Acetylcholinesterase (Homo sapiens, UniProt P22303).
The target of data set [2] is Acetylcholinesterase (Electrophorus electricus, UniProt O42275).
The target of another data set is Cholinesterase (Equus caballus, UniProt P81908).
Data set [3] addresses Amyloid-beta precursor protein (Homo sapiens) (UniProt P05067). The data set can be described thus: Inhibition of recombinant human HFIP-pretreated Amyloid beta (1 to 42) (unknown origin) self-induced aggregation at 10 uM after 24 hrs by thioflavin T-based fluorometric assay.
The target in data set [4] is Cholinesterase (Equus caballus) (UniProt P81908). Put plainly: Inhibition of BuChE in horse serum at 10 uM pre-incubated for 5 mins before addition of butyrylthiocholine iodide substrate by Ellman's assay.
The conditions of data set [5]: PAMPA. A general note: In PAMPA a lipid-coated filter parts donor from acceptor wells.

Cholinesterase, sequence (P81908 whole entry): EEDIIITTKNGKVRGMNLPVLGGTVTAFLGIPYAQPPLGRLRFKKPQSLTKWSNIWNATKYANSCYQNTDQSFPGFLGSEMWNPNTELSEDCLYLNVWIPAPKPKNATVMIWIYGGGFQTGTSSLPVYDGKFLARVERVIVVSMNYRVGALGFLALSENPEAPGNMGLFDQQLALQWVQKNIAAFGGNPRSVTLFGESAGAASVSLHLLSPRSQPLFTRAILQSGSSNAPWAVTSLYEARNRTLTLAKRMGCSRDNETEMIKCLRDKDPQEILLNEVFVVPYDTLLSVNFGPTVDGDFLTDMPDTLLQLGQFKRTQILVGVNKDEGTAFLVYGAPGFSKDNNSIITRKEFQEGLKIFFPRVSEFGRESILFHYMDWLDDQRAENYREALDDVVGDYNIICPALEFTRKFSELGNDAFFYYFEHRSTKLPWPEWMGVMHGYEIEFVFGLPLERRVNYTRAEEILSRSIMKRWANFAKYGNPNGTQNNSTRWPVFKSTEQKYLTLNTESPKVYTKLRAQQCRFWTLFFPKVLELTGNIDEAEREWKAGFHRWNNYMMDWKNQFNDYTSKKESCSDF
Cholinesterase (Equus caballus), sequence (P81908 whole entry): as above
Amyloid-beta precursor protein (Homo sapiens), sequence (P05067 whole entry): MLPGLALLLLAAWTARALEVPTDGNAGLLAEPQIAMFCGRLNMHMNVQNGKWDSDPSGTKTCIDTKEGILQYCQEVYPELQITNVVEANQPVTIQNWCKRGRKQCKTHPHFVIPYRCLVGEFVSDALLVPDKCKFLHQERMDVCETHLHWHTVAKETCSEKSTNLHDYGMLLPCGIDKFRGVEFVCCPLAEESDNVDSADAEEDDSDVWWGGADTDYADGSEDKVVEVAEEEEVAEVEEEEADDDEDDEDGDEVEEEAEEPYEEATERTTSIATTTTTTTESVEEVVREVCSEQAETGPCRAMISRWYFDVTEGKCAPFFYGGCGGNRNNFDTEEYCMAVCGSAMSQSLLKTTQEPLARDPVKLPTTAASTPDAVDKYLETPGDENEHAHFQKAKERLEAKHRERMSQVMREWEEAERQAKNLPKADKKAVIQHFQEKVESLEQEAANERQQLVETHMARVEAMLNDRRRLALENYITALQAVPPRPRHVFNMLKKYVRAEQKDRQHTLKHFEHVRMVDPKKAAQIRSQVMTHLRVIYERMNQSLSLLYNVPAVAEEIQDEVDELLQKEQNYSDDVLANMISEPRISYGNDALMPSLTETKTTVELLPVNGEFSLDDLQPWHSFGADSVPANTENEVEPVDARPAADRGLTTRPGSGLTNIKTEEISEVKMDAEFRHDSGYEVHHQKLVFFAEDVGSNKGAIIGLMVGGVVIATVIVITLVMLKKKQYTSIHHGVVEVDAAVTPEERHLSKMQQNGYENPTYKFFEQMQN
Acetylcholinesterase (Homo sapiens, UniProt P22303), sequence (P22303 whole entry): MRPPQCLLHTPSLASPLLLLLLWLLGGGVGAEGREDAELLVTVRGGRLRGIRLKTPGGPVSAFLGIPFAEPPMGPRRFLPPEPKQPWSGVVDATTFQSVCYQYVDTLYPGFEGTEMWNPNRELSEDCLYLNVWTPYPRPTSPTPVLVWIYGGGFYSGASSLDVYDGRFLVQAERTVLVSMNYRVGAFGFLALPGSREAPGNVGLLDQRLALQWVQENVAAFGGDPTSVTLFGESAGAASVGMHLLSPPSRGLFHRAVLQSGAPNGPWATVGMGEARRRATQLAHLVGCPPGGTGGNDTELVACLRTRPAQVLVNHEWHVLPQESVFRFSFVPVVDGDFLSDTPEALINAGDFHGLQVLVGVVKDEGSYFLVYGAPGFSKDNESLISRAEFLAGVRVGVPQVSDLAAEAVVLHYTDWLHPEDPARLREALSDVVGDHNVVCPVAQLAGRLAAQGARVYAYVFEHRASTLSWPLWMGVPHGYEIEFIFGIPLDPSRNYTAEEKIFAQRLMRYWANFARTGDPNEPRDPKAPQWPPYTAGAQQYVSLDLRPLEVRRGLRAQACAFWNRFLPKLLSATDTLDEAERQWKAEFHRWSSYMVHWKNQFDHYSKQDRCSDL
Acetylcholinesterase (Electrophorus electricus, UniProt O42275), sequence (O42275 whole entry): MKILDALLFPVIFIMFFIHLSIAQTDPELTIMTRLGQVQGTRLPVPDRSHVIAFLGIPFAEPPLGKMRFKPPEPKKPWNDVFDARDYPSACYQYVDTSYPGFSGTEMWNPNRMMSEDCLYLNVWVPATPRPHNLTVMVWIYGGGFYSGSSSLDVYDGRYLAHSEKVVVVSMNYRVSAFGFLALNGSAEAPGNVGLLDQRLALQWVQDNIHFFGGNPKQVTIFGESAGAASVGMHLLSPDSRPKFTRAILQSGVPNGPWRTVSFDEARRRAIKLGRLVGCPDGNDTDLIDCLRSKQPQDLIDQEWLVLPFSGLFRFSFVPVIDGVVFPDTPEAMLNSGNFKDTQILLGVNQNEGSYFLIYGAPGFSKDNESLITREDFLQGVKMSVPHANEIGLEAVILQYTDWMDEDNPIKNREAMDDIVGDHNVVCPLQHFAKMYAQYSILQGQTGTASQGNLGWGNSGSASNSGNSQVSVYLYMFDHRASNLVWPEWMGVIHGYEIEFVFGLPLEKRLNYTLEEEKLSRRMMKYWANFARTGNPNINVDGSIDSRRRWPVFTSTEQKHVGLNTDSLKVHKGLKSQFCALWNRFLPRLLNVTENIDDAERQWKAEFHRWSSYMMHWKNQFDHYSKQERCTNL

On to `CN(CCCCCCCCN1C(=O)c2ccccc2C1=O)Cc1cccc(Cl)c1`, for which the IC50 against Acetylcholinesterase [1] came to 1040 nM; against Acetylcholinesterase [2] it was 1360 nM; against Cholinesterase, 909 nM. The inhibition in data set [3] was < 5%.

Turning to `CN(CCCCCN1C(=O)c2ccccc2C1=O)Cc1ccccc1F`, the IC50 on Acetylcholinesterase [1] worked out at 525 nM; against Acetylcholinesterase [2], 67 nM. The inhibition in data set [4] was < 50%; in data set [3], < 5%.

On to `CN(CCCCCN1C(=O)c2ccccc2C1=O)Cc1cccc(Cl)c1`, for which the IC50 at Acetylcholinesterase [1] was 537 nM; against Acetylcholinesterase [2], 110 nM; at Cholinesterase, 5830 nM. Besides, the inhibition in data set [3] was < 5%.

Consider `CN(CCCCCCCN1C(=O)c2ccccc2C1=O)Cc1ccccc1`, for which the IC50 against Acetylcholinesterase [1] is 997 nM; against Acetylcholinesterase [2], 172 nM; against Cholinesterase, 1010 nM. In addition, in data set [3], the inhibition was < 5%.

Consider `CN(CCCCCCCCN1C(=O)c2ccccc2C1=O)Cc1ccccc1F`, for which the IC50 amounted to 644 nM against Acetylcholinesterase [1], 661 nM on Acetylcholinesterase [2] and 4680 nM against Cholinesterase. The inhibition in data set [3] is < 5%.

Turning to `CC(=O)[C@H]1CC[C@H]2[C@@H]3CCC4=CC(=O)CC[C@]4(C)[C@H]3CC[C@]12C` [PROGESTERONE], the “log Pe” value in data set [5] is given as -5.1.

On to `CN(CCCCN1C(=O)c2ccccc2C1=O)Cc1ccccc1F`, for which the IC50 at Acetylcholinesterase [2] amounted to 1520 nM. Further, the inhibition was < 50% in data set [4] and < 5% in data set [3].

As to `CN(CCCCCCCN1C(=O)c2ccccc2C1=O)Cc1cccc(Cl)c1`, the IC50 on Acetylcholinesterase [1] stood at 1300 nM; on Acetylcholinesterase [2], 500 nM; at Cholinesterase, 1500 nM. In addition, in data set [3], the inhibition is < 5%.

Regarding `CN(CCCCCCN1C(=O)c2ccccc2C1=O)Cc1ccccc1`, the values for the IC50 on Acetylcholinesterase [1] and against Acetylcholinesterase [2] were 1830 nM and 89 nM, respectively. Further, the inhibition in data set [4] is < 50%; in data set [3], < 5%.

Turning to `CN(CCCCCCN1C(=O)c2ccccc2C1=O)Cc1cccc(Cl)c1`, the IC50 against Acetylcholinesterase [1] was found to be 1190 nM; at Acetylcholinesterase [2], 95 nM; against Cholinesterase, 2440 nM. Further, in data set [3], the inhibition is < 5%.

For the molecule `O=C1c2ccccc2C(=O)N1Cc1ccc(CNCc2ccccc2)cc1`, the IC50 on Cholinesterase was determined as 2080 nM. The inhibition in data set [3] was < 5%.

As to `CN(CCCCCCCN1C(=O)c2ccccc2C1=O)Cc1ccccc1F`, the IC50 came out at 625 nM against Acetylcholinesterase [1], 525 nM against Acetylcholinesterase [2] and 7160 nM against Cholinesterase. Further, the inhibition in data set [3] was < 5%.

In turn, `CN(CCCCN1C(=O)c2ccccc2C1=O)Cc1cccc(Cl)c1` showed an IC50 against Acetylcholinesterase [2] of 1430 nM. The inhibition in data set [4] was < 50%; in data set [3] it was < 5%.

In the case of `CN(CCCCCCCCN1C(=O)c2ccccc2C1=O)Cc1ccccc1`, the half-maximal inhibitory concentration (IC50) on Acetylcholinesterase [1] is 860 nM; at Acetylcholinesterase [2] it was 139 nM; against Cholinesterase, 543 nM. Also, in data set [3], the inhibition was < 5%.

As to `CN(CCCCCN1C(=O)c2ccccc2C1=O)Cc1ccccc1`, the concentration for half-maximal inhibition (IC50) against Acetylcholinesterase [1] is 361 nM; against Acetylcholinesterase [2], 80 nM. For the same molecule, the values for the inhibition in data set [4] and in data set [3] were < 50% and < 5%, respectively.

As to `CN(CCCCCCN1C(=O)c2ccccc2C1=O)Cc1ccccc1F`, the 50% inhibitory concentration (IC50) amounted to 1990 nM against Acetylcholinesterase [1], 75 nM against Acetylcholinesterase [2] and 10500 nM at Cholinesterase. The inhibition in data set [3] is < 5%.

Take `CN(CCCCN1C(=O)c2ccccc2C1=O)Cc1ccccc1`: on Acetylcholinesterase [2], the IC50 came out at 2330 nM. Also, the inhibition in data set [4] was < 50%; in data set [3], < 5%.

Regarding `O=C1c2ccccc2C(=O)N1Cc1ccc(CNCc2cccc(Cl)c2)cc1`, the IC50 against Acetylcholinesterase [2] came out at 6310 nM; against Cholinesterase it was 1320 nM. For the same molecule, the inhibition in data set [3] was < 5%.

On to `O=C1c2ccccc2C(=O)N1Cc1ccc(CNCc2ccccc2F)cc1`, for which the IC50 at Acetylcholinesterase [2] turned out to be 2580 nM; at Cholinesterase it was 2900 nM. Moreover, the inhibition in data set [3] was < 5%.

Broadly, the IC50 is the concentration that inhibits the measured activity by half. The term inhibition denotes the share of the control response that was lost under treatment.
